We go through one molecule from publication PMC10238386, “Serine ADP-ribosylation in Drosophila provides insights into the evolution of reversible ADP-ribosylation signalling” (Nature Communications, 2023).

Assay [1] concerns the target T1, hPARP1 (Homo sapiens, UniProt P09874).
T1 construct: gene PARP1
Nature of the assay: […] auto-ADP-ribosylation (poly-Glu), SDS-PAGE autoradiography. The format is biochemical. The following applies: labelled compound (32P-NAD+); 50 µM NAD+, activated DNA, 2 mM MgCl2, pH 8, room temperature; no HPF1.

Assay [2] addresses T2, hPARP1 (Homo sapiens, UniProt P09874, E988Q).
T2 construct: gene PARP1
Nature of the assay: […] auto-mono-ADP-ribosylation, SDS-PAGE autoradiography. The format is biochemical. The following applies: labelled compound (32P-NAD+); 50 µM NAD+, activated DNA, 2 mM MgCl2, pH 8, room temperature; no HPF1.

T1 sequence (P09874 2-1014): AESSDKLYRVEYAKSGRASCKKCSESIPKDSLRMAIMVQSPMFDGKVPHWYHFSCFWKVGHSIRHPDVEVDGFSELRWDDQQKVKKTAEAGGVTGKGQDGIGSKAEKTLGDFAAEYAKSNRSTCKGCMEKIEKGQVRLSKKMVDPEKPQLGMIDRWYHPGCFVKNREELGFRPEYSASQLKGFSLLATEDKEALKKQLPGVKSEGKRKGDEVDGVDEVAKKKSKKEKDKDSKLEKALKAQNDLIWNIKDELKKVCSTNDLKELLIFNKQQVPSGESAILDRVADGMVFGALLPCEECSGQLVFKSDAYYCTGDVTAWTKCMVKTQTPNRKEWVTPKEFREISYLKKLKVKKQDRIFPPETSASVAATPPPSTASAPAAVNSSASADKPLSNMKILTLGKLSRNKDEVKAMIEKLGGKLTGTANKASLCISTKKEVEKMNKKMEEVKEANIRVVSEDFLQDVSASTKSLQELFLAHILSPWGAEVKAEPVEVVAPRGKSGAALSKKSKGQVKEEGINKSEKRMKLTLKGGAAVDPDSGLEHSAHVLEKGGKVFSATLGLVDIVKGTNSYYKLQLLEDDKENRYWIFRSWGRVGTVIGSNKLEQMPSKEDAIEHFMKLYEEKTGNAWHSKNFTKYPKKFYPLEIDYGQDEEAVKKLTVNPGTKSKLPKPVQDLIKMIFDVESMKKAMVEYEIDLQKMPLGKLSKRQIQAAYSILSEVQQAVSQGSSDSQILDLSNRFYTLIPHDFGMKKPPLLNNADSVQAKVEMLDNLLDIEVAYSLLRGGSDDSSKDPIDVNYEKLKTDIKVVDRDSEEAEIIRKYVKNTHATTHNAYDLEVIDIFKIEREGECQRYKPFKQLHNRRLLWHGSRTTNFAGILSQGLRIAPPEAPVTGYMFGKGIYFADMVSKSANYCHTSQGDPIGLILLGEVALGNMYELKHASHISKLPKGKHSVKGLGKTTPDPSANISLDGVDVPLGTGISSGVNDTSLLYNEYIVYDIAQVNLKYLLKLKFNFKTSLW
T2 sequence (P09874 2-1014 E988Q): as the sequence (P09874 2-1014) above, with E987Q counted along it

As for `NC(=O)c1ccc[n+]([C@@H]2O[C@H](COP(=O)(O)OP(=O)(O)OC[C@H]3O[C@@H](n4cnc5c(N)ncnc54)[C@H](O)[C@@H]3O)[C@@H](O)[C@H]2O)c1` [NAD^+], the “32P auto-ADP-ribosylation (poly-Glu), SDS-PAGE autoradiography” value in assay [1] was “recombinant proteins or peptides were ADP-ribosylated by hPARP1 to produce Glu-ADPr”. In assay [2], the “32P auto-mono-ADP-ribosylation, SDS-PAGE autoradiography” value is given as “we generated the mono-ADPr variants using the hPARP1 E988Q mutant”.
